The values that follow come from patent US8211883B2, “Topical delivery of phthalocyanines” (priority 2004, dated 2012).

Data set [1] deals with Chinese hamster V79-379 lung fibroblasts. Briefly: Uptake of phthalocyanines into V79 cells. Particulars: V79 cells, 1.0 μM, 18 hours. The procedure, abridged:
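V79-379 cells were incubated with phthalocyanine for 18 h, typically at 1, 2 and/or 4 μM. Cells collected on filters were extracted into ethanol and absorbance read at the peak, usually 668 nm. Values are nmol per 10^6 cells, using ε 2.93×10^5.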

For data set [2] the test system is unchanged. Put plainly: Growth delay of V79 cultures after phthalocyanine and red light. It is filed as cell-based. Particulars: V79 cells, 1.0 μM, 18 hours, 12 kJ/m^2 red light. The protocol: At the time of light exposure, there were approximately 1.5×10^5 cells per 25 cm^2 flask. Following irradiation, the HBSS was replaced by 10 mL of fresh complete growth medium, and the cultures were returned to the 37° C. incubator. At various times before and after irradiation, duplicate cultures were trypsinized and counted. Controls included untreated cells and cells treated with light alone or drug alone. In addition, in each experiment, the drug to be tested was compared to a standard treatment, i.e. 1 μM AlPcCl for 18 hours followed by 12 kJ/m^2 light.
The inhibition of V79 culture growth was measured during a three day period following red light irradiation (12 kJ/m^2) of phthalocyanine-pretreated cells. With each of the active compounds, as well as with AlPcCl, there was an initial decrease in cell density, as dead cells became detached from the monolayer. Thereafter, the cell number per flask increased, as living cells grew and divided. The time for the cell density to recover to the level at the time of light exposure was considered the growth delay. […] The ratio of the growth delay for the test photosensitizer and the growth delay for AlPcCl measured in the same experiment is recorded in Table 1. There was less inhibition of culture growth when cells were exposed to compounds III, V, or VI as expected from the poor cellular uptake of these drugs.

Data set [3] can be described thus: Photolysis of solutions by white light. It is filed as physicochemical.
A further data set has as its system L5178Y cells. Put plainly: Induction of apoptosis (DNA ladder) in L5178Y cells after PDT. In kind it is cell-based, Mouse. Particulars: for Fluence, Minimum Demonstrated Condition to Induce Apoptosis / C × F Ld90, Minimum Demonstrated Condition to Induce Apoptosis: 0.5 μM; for Fluence, Minimum Demonstrated Condition to Induce Apoptosis: suspended in DMF-Tween 80; for C × F Ld90, Minimum Demonstrated Condition to Induce Apoptosis: suspended in DMF-Tween 80, product of concentration and fluence; for induction of apoptosis: 1 μM at a fluence of 30 kJ/m^2.

The nature of the next data set: Solubility. In kind it is physicochemical.
Data set [4] relates to human skin keratome biopsies. Briefly: Penetration of topically applied PcIV and salts into human skin, confocal fluorescence microscopy. In kind it is in vitro ADME. Here is the method:
Human skin absorption of PcIV was analyzed by fluorescence confocal microscopy. PcIV fluorescence, upon activation with a HeNe laser at 633 nm, was visualized using a 650 long pass filter. Briefly, 0.4 mm thick human keratomes were removed from the gluteal region of healthy volunteers and divided into 1.5 cm×1.5 cm squares of skin. Upon application of PcIV to the epidermis in a vehicle of ethanol and propylene glycol, visualization of penetration of PcIV was achieved by fluorescence. Pc 4 was then prepared as PcIV-pyruvate and PcIV-HCl and applied in the same vehicle as Pc 4 to the epidermis. Three concentrations, namely, 0.1 mg/mL, 0.05 mg/mL, and 0.01 mg/mL were tested per PcIV formulation. Skin was incubated at 37° C. for 1, 2, and 4 hours, along with vehicle controls. […] Maximum PcIV fluorescence was detectable using laser transmission of 3% for the 0.1 mg/mL and 30% for the 0.01 mg/mL. Both PcIV.pyruvate and PcIV.HCl however could be visualized with a laser transmission of 2-3% for the 0.1 mg/mL and 7-9% for the 0.01 mg/mL concentrations.
The ability of PcIV and the newly prepared PcIV salts (HCl and pyruvate) to penetrate into the epidermis of keratome derived biopsies was examined. The time course of penetrance as well as the effect of dose of the PcIV compounds were evaluated. PcIV and the PcIV.HCl and PcIV.pyruvate salts were resuspended in ethanol (100%, 1 part PcIV, 499 parts ethanol) and then diluted to final concentrations in a 30% Propylene Glycol 70% Ethanol mixture.
Keratome biopsies of normal skin were obtained from normal volunteers after written consent according to UHHS IRB protocol # 05-95-03. To date, seven experiments have been performed. The range of age for volunteers was 20-40 yrs. Individuals represented Fitzpatrick skin types between I-III. Skin biopsies were held in PBS following the keratome procedure until processed for PcIV Application (less than 1 hr). The keratome skin samples (1.5 cm^2) were overlayed onto sterile gauze in 80 mm tissue culture petri dishes epidermal side down. PcIV compounds were then applied to the corners of the sterile gauze and allowed to “wick” through the gauze and contact the epidermis of the skin for the indicated times. Following the incubation, the tissue was removed from the gauze and washed three times in phosphate buffered saline and held, in PBS, until analysis by confocal microscopy. Confocal images were acquired using a 20×N.A. 0.5 water immersion objective on a Zeiss 510 confocal microscope. PcIV fluorescence was elicited using a 633 nm wavelength for excitation, and collected with a 633 nm dichroic mirror and 650 nm long-pass filter.

Data set [5] relates to Chinese hamster V79-379 lung fibroblasts. Put plainly: Clonogenic cell survival of V79 cells after photodynamic treatment. It is filed as cell-based. Particulars: for CF10(AIPcCI)/CF10 (Pc) / F10(AIPcCI)/F10 (Pc): 1.0 μM; for CF10(AIPcCI)/CF10 (Pc): CF10 = product of intracellular concentration and fluence reducing survival to 10%; for F10(AIPcCI)/F10 (Pc): F10 = fluence reducing cell survival to 10%. The procedure, abridged:
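V79 cells exposed to 0.5 or 1.0 μM phthalocyanine, then irradiated about 18 h later with increasing fluences of broad-band red light (600 nm high-pass filter). Survival scored as colonies of ≥50 cells. F10 taken from survival curves; CF10 from survival against intracellular concentration × fluence; 1 μM AlPcCl run as reference.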

In data set [6] the test system is RIF-1 (radiation-induced fibrosarcoma) tumors. Put plainly: PDT of RIF-1 implanted tumors. It is filed as in vivo, C3H/HeN mice. Also on record: key to Tumor Responses at 24 hours: complete: no evidence of any tumor mass in any animal; only the scar from the photodynamic therapy was evident.; near complete: evidence of any tumor mass in four or five animals; only some tumor mass in one or two animals.; substantial: a significant tumor shrinkage occurred in all animals. In some animals the tumor response was complete, yet in others the response was not complete.; moderate: some tumor shrinkage was evident in some animals. In animals with some tumor shrinkage, scar formation was evident.; slight: some tumor decrease occurred in one or two mice. Particulars: 1 mg/kg in corn oil, 675 nm. Here is the method: The relative effectiveness at reducing tumor volume of selected phthalocyanine compounds at a given dosage was compared in vivo. RIF-1, i.e., radiation-induced fibrosarcoma, tumors were implanted into the backs of C3H/HeN mice. One tumor was implanted per mouse. Each of the phthalocyanine compounds listed in Table 7 was sonicated and vortexed in corn oil to produce a suspension. When the tumors reached […] in diameter and 2-3 mm in thickness, each mouse received 1 mg/kg in 0.1 mL of the corn oil, of the phthalocyanine suspension. For comparison, select mice received a conventional photosensitizer; either 5 mg/kg of chloroaluminum phthalocyanine tetrasulfonate, herein also referred to as “AlPcTS” in phosphate buffered saline or 5 mg/kg of Photofrin®-II in 5% dextrose. Twenty-four hours after the photosensitizers were administered, the tumors were irradiated with visible radiation delivered by an argon-pumped dye laser. The mice that received a phthalocyanine photosensitizer received light having a wavelength of 675 nm and the mice that received the Photofrin® II photosensitizer received light having a wavelength of 630 nm. Each tumor received 135 J/cm^2 of radiation. Tumor size was measured every day using calipers. The initial tumor volume was 50±10 mm^3. Tumor volume was calculated according to the hemiellipsoid model by the formula: V=½(4π)/3×(½×(w/2))×h
• complete—no evidence of any tumor mass in any animal; only the scar from the photodynamic therapy was evident. • near complete—evidence of […] in four or five animals; only some tumor mass in one or two animals. • substantial—a significant tumor shrinkage occurred in all animals. In some animals the tumor response was complete, yet in others the response was not complete. • moderate—some tumor shrinkage was evident in some animals. In animals with some tumor shrinkage, scar formation was evident. • slight—some tumor decrease occurred in one or two mice.

For data set [7], the system named is human breast cancer MCF-7c3 cells. Briefly: Uptake of PcIV salts into MCF-7c3 cells by flow cytometry. Conditions: 50, 100 or 200 nM, 60 minutes, mean channel fluorescence normalized to PcIV. On the technique in general: A flow cytometer gives signals particle by particle.
Protocol: Cells were grown in 5 mL of RPMI-1640 medium supplemented with 10% fetal calf serum in 60-mm diameter Petri dishes in a 37° C. incubator in an atmosphere of 5% CO2, 95% air. Cultures were used when they were in exponential growth. For experiments, various concentrations (50, 100, or 200 nM) of each compound (PcIV, PcIV-HCl, PcIV-pyruvate), were added to the medium above the cells, and the dishes were returned to the incubator for 60 minutes to allow the photosensitizers to enter the cells. To evaluate uptake, the medium was removed, and the cells were detached from the plastic surface with trypsin and collected by centrifugation. The cell pellet was suspended in phenol-red-free Hank's balanced salt solution and analyzed by flow cytometry (λex=335-355 nm; emission collected through a 650-nm long-pass filter). For each cell sample, the data were expressed as the mean channel fluorescence and background was subtracted. Data for each concentration of the PcIV salts were then normalized to those for the same concentration of PcIV in the same experiment. […] Error bars represent the standard deviation of the mean.

Counter-ions that a name gives are not always drawn. Like-named read-outs stand apart in the source and are kept apart here.

Protocol for L5178Y cells: The cells were used while in exponential growth. Stock solutions of either 0.5 or 1 mM of PcIV, PcXII, PcX, PcXVIII were prepared in dimethylformamide unless otherwise indicated and added to the 10 mL medium at a rate of 1 μL per mL. After allowing 18 hours for uptake of the phthalocyanine into the cells, the flasks containing the cultures were placed on a glass exposure tray above a 500-W tungsten-halogen lamp. The exposure tray was fitted with a 600-nm high-pass filter. Flasks were exposed to various fluences of red light (up to 30 kJ/m^2) at a fluence rate of approximately 74 W/m^2). After irradiation, the cells were collected by centrifugation.
The aliquots were plated in sufficient numbers to produce 50-200 colonies. The dishes were kept in an incubator at 37° C. in an atmosphere of 5% CO2 and 95% air for 10-14 days to allow viable cells to form colonies. Colonies were counted by eye. […] The plating efficiencies of the treated cells are normalized to the plating efficiencies of control cells in each experiment.
Cells were treated with various concentrations of the compounds listed in the table and various light fluences. DNA gels were prepared and examined for the characteristic “ladder” pattern of DNA fragments. For each Pc, the minimum total PDT dose tested (calculated as the product of the minimum phthalocyanine concentration and the minimum fluence) which produced visible DNA fragments is recorded. […] PcXVIII was also added at 0.5 and 1.0 μM.

For `CN(C)CCC[Si](C)(C)O[Si]1(C)n2c3c4ccccc4c2N=C2N=C(N=c4c5ccccc5c(n41)=NC1=NC(=N3)c3ccccc31)c1ccccc12` (stereo not drawn) [Compound III, CH3SiPcOSi(CH3)2(CH2)3N(CH3)2], the “Uptake, Efficiency Relative to 1 μM (AlPcCl)” value in data set [1] amounted to 0.07. The “Growth Delay (12 kj/m^2), Efficiency Relative to 1 μM (AlPcCl)” value in data set [2] is listed as 0.05. Also, in data set [3], the photolysis of solutions entry is listed as “rapidly photolyzed by white light”.

Turning to `C[Si](C)(CCCN1CCNCC1)O[Si]1(O[Si](C)(C)CCCN2CCNCC2)n2c3c4ccccc4c2N=C2N=C(N=c4c5ccccc5c(n41)=NC1=NC(=N3)c3ccccc31)c1ccccc12` [Compound XXXII, SiPc[OSi(CH3)2(CH2)3NC4H8NH]2], in the data set on L5178Y cells, the “Fluence, Minimum Demonstrated Condition to Induce Apoptosis” value is on record as 5 kJ/m^2 and the “C × F Ld90, Minimum Demonstrated Condition to Induce Apoptosis” value is recorded as 2.5 kJ/m^2. Besides, the “solubility in DMF” value in the data set “Solubility” is given as “not soluble in DMF”.

As for `C[N+](C)(C)CCC[Si](C)(C)O[Si]1(O[Si](C)(C)CCC[N+](C)(C)C)n2c3c4ccccc4c2N=C2N=C(N=c4c5ccccc5c(n41)=NC1=NC(=N3)c3ccccc31)c1ccccc12.[I-].[I-]` [Compound VI, SiPc[OSi(CH3)2(CH2)3N(CH3)3)^+I^−]2], the “Uptake, Efficiency Relative to 1 μM (AlPcCl)” value in data set [1] is 0.1. For the same molecule, the “Growth Delay (12 kj/m^2), Efficiency Relative to 1 μM (AlPcCl)” value in data set [2] stood at 0.5. Also, in the data set on L5178Y cells, the induction of apoptosis result is given as “did not induce apoptosis”. Besides, the “solubility in H2O” value in the data set “Solubility” is given as “disperses in H2O but doses not dissolve in it”.

Regarding `CN(C)CCC[Si](C)(C)O[Si]1(O)n2c3c4ccccc4c2N=C2N=C(N=c4c5ccccc5c(n41)=NC1=NC(=N3)c3ccccc31)c1ccccc12` (stereo not drawn) [PcIV-HCl, HOSiPcOSi(CH3)2(CH2)3N(CH3)2(HCl)], in data set [4], the “effect of salt formulation on penetration through the skin” value was “does not hinder the penetration”.

Regarding “AlPcOSi(CH3)2(CH2)3N(CH3)3^+I^− [Compound II]”, the “Uptake, Efficiency Relative to 1 μM (AlPcCl)” value in data set [1] amounted to 1.8. In [2], the “Growth Delay (12 kj/m^2), Efficiency Relative to 1 μM (AlPcCl)” value is listed as 3.4. In data set [5], the “CF10(AIPcCI)/CF10 (Pc)” value was determined as 0.72 and the “F10(AIPcCI)/F10 (Pc)” value stood at 0.99. The “solubility in H2O” value in “Solubility” is given as “insoluble”.

Turning to `CN1CCN(CCC[Si](C)(C)O[Si]2(O[Si](C)(C)CCCN3CCN(C)CC3)n3c4c5ccccc5c3N=C3N=C(N=c5c6ccccc6c(n52)=NC2=NC(=N4)c4ccccc42)c2ccccc23)CC1` [Compound XXX, SiPc[OSi(CH3)2(CH2)3NC4H8NCH3]2], the “Maximum Effect (% survival at kj/m^2)” value in data set [5] (concentration not given, at 10 kj/m^2) worked out at 30% at 10. Besides, in the data set with L5178Y cells, the “Fluence, Minimum Demonstrated Condition to Induce Apoptosis” value amounted to 15.0 kJ/m^2 and the “C × F Ld90, Minimum Demonstrated Condition to Induce Apoptosis” value was 7.5 kJ/m^2. In addition, the “solubility in DMF” value in the data set “Solubility” was “not soluble in DMF”.

Turning to `C[N+](C)(C)CCC[Si](C)(C)O[Si]1(O)n2c3c4ccccc4c2N=C2N=C(N=c4c5ccccc5c(n41)=NC1=NC(=N3)c3ccccc31)c1ccccc12.[I-]` (stereo not drawn) [Compound V, HOSiPcOSi(CH3)2(CH2)3N(CH3)3^+I^−], the “Uptake, Efficiency Relative to 1 μM (AlPcCl)” value in data set [1] is 0.3. Further, the “Growth Delay (12 kj/m^2), Efficiency Relative to 1 μM (AlPcCl)” value in data set [2] worked out at 0. Further, in data set [5], the “CF10(AIPcCI)/CF10 (Pc)” value came to 3.0 and the “F10(AIPcCI)/F10 (Pc)” value is 0.59. The induction of apoptosis result in the data set on L5178Y cells was “did not induce apoptosis”. Further, in data set [6] (135 J/cm^2, light 24 h after dosing), the “Tumor Responses at 24 hours” value is “moderate”. In addition, the “Doubling Time of Initial Tumor Volume after PDT” value in data set [6] (135 J/cm^2, controls 4 days) is listed as 6 days. The “solubility in H2O” value in the data set “Solubility” is given as “insoluble”.

For `CC(=O)C(=O)O.CN(C)CCC[Si](C)(C)O[Si]1(O)n2c3c4ccccc4c2N=C2N=C(N=c4c5ccccc5c(n41)=NC1=NC(=N3)c3ccccc31)c1ccccc12` (stereo not drawn) [PcIV-pyruvate, HOSiPcOSi(CH3)2(CH2)3N(CH3)2(CH3C(O)COOH)], the “effect of salt formulation on penetration through the skin” value in data set [4] (compared to PcIV) is “does not hinder the penetration”. In addition, the “efficiency in entering MCF-7c3 cells compared to PcIV” value in data set [7] was “at least as efficient, and possibly more efficient”.
